Entries after “also recorded” stand apart in the source; their conditions may differ.
What was measured:
[1] = tested on: lung cancer induced by urethane; assay: Urethane model of lung cancer, tumor examination; format: in vivo, mouse; conditions: ΔSPC mice (lung epithelial PDLIM2 deletion), 5-aza-dC and MS275 combination therapy (Epi)
Experimental: (§1) Urethane model: 6-8-week-old mice under FVB/N background were intraperitoneally (i.p.) injected with urethane (1 g/kg body weight, Sigma-Aldrich, St. Louis, MO, USA) once a week for six weeks. All mice were sacrificed for lung tumor examinations seven (for no drug treatment experiments) or six (for drug treatment experiments) weeks post urethane treatment. For drug treatment experiments, the epigenetic agents 5-aza-dC (1 mg/kg body weight, Sigma-Aldrich, St. Louis, MO, USA) and MS-275 (1 mg/kg body weight, Selleckchem, Houston, TX, USA), chemotherapeutic drugs carboplatin (30 mg/kg body weight, AdipoGen, San Diego, CA, USA) and paclitaxel (15 mg/kg body weight, AdipoGen, San Diego, CA, USA), and/or PD-1 neutralizing antibody (200 μg/mouse, BioXCell, West Lebanon, NH, USA) were i.p injected as indicated in FIG. 4. Surface tumors in mouse lungs were counted by three blinded readers under a dissecting microscope, and tumor diameters were measured by microcalipers. K-Ras^G12D model: 6-8-week-old mice under FVB/N background were intranasally administered 1×10^7 plaque-forming units of Cre-expressing adenovirus (adenocre; Gene Transfer Vector Core, University of Iowa, Iowa City, IA). Three months post AdenoCre treatment, all mice were sacrificed for lung tumor examinations.
PDLIM2flx/flx/SP-C-rtTAtg/−/(tetO)7CMV-Cretg/tg (ΔSPC) mice under a pure FVB/N background and PDLIM2−/− mice under a pure BABL/C background have been described before (Sun et al., Nat. Commun. 2019. 10, 5324). For lung carcinogenesis, six to eight week old ΔSPC and wild type FVB/N mice were intraperitoneally (i.p.) injected with urethane (1 mg/g body weight, Sigma-Aldrich, St. Louis, MO, USA) once a week for six consecutive weeks, followed by different treatment as shown in FIGS. 45A and 49A. Mice were sacrificed for lung inflammation and tumor examinations at six weeks post urethane treatment. Surface tumors in mouse lungs were counted blinded under a dissecting microscope, and tumor diameters were measured by microcalipers. […]

PDLIM2 [2] = assay: IHC staining of PDLIM2 in mouse lung tumors and tissues (urethane model); format: in vivo
Experimental: as §1
Mouse or tissues were excised, fixed in formalin, embedded in paraffin, and cut into 4-pm-thick sections. […]

[3] = Toxicity: animal body weight and H&E staining of major organs; format: in vivo, mouse; conditions: mice with lung cancer; 1 mg/kg of 5-aza-dC and MS-275 twice per week for 6 weeks
PDLIM2 [4] = assay: qPCR analysis of PDLIM2 in mouse MAD109 lung cancer cells; format: cell-based
PDLIM2 [5] = assay: qPCR analysis of PDLIM2 expression in human lung cancer cell lines; format: cell-based
PD-L1 [6] = assay: qPCR of PD-L1 in lung cancer cells; format: cell-based, human; conditions: lung cancer cells
Source text: Mouse lung tissues and BAL cells were subjected to RNA extraction, RNA reverse transcription and real-time PCR as described (Li et al., Oncoimmunology 7, e1435250 (2018); Sun et al., Bio. Protoc. 7, pii: e2287 (2017)).

human lung cancer cells = assay: Cell growth assays; format: cell-based; conditions: human lung cancer cells with PDLIM2 knockdown (shRNA), in vitro
Experimental: Cells were seeded into 12-well plates at a density of 5,000 cells per well, in the presence or absence of the indicated treatment. Cell density was determined by replacing the medium with 2 μmol/L of calcein AM in 1× dissociation solution (Trevigen) at the indicated time points. After 1 h of incubation, diesterase activity (relative fluorescence units) was measured with a Tecan Infinite 200 Microplate Reader, using an excitation wavelength of 485 nm and emission wavelength of 520 nm.

PD-L1 [7] = assay: IHC staining of PD-L1 in lung cancer (urethane model); format: in vivo, mouse; conditions: 5-aza-dC and MS-275 together
Experimental: as §1
Mouse or tissues were excised, fixed in formalin, embedded in paraffin, and cut into […] sections. Sections were stained with H&E, or subjected to sequential incubations with different primary antibodies and peroxidase-conjugated goat anti-rabbit secondary antibodies. The human lung tumor tissue arrays were described previously (Sun et al., Oncogene 35, 2299-2310 (2016)).
Lung tissues were excised, fixed in formalin, embedded in paraffin, and cut into 4-μm-thick sections. Sections were stained with H&E, or subjected to sequential incubations with the indicated primary antibodies, biotinylated secondary antibodies and streptavidin-HRP.

## Nc1ccccc1NC(=O)c1ccc(CNC(=O)OCc2cccnc2)cc1 [MS-275, entinostat]
[1]
  lung cancer treatment (tumor examination): completely lost the ability to treat lung cancer; also recorded: complete resistance
PDLIM2 [2]; both in vitro and in vivo
  PDLIM2 expression in murine lung cancers: could be restored
PDLIM2 [2]; urethane model, 5-aza-dC and MS-275 (epigenetic drugs) given together
  PDLIM2 expression in mouse lung tumor (IHC staining): PDLIM2 recovery
[3]
  animal body weight: body weight loss
PDLIM2 [4]
  PDLIM2 expression (qPCR): PDLIM2 re-induction
PDLIM2 [5]; H460 human lung cancer cells
  PDLIM2 expression (qPCR): PDLIM2 recovery; also recorded: time-dependent induction of PDLIM2
PDLIM2 [5]; human lung cancer cell lines
  PDLIM2 expression (qPCR): induction of PDLIM2
PDLIM2 [5]; human lung cancer cell lines, listed as MS275
  PDLIM2 expression (qPCR): induced PDLIM2 re-expression
PDLIM2 [5]; normal human lung epithelial cell line NL-20 with oncogenic K-Ras Q61H mutant
  PDLIM2 expression (qPCR): PDLIM2 re-induction
PD-L1 [6]
  PD-L1 expression (qPCR): PD-L1 induction
Human lung cancer cells
  cell growth: protected human lung cancer cells; also recorded: protection of human lung cancer cells
PD-L1 [7]
  PD-L1 expression in lung cancer (IHC staining): PD-L1 induction
